Laboratory results: US8367060B2, “Pharmaceutical composition containing arazyme for the prevention of liver dysfunction” (Insect Biotech Co., Ltd., priority 2006, dated 2013)
Entries after “also recorded” stand apart in the source; their conditions may differ.

Tests used:
SMP30 [1] = assay: Expression of SMP30 in liver cells by immunoblotting; type: in vivo; conditions: wild type mice; 100 mg/kg oral before CCl4; compared with CCl4 only (G2)
Method: (§1) Wild type mice and SMP30 knock-out mice were divided, by 5 of each, into negative control groups (G1, G5), positive control groups (G2, G6), two of experimental group 1 (G3, G7) and two of experimental group 2 (G4, G8) (Table 1). Intraperitoneal administration of olive oil was performed once to negative control mice (G1, G5), while intraperitoneal administration of CCl4 (0.4 ml/kg) was performed once to positive control mice (G2, G6). In the meantime, 100 mg/kg of vitamin C dissolved in tap water was orally administered to experimental group 1 mice (G3, G7) one day before the intraperitoneal administration of CCl4 (0.4 ml/kg). 100 mg/kg of arazyme dissolved in tap water was orally administered to experimental group 2 mice (G4, G8) one day before the intraperitoneal administration of CCl4 (0.4 ml/kg). 24 hours after the administration of CCl4, autopsy was performed in every mouse and samples were taken from each mouse for histopathological test.
(§2) The expression of SMP30 in liver cells was investigated by immunoblotting. First, the liver tissues frozen at −70° C. were homogenized in RIPA buffer containing 0.1 mM sodium orthovandate (Na3VO4) and protease inhibitor cocktail tablet (Roche, Mannheim, Germany). […] Protein concentration was measured by Bradford method and each protein sample proceeded onto 10% SDS-polyacrylamide gel at the concentration of 80 µg/well, followed by electrophoresis. […]

liver cells = assay: Histopathological observation on liver cells (H&E) in CCl4-induced acute liver injury; type: in vivo, mice; conditions: for necrosis in liver cells: 100 mg/kg oral one day before CCl4 0.4 ml/kg i.p., autopsy 24 hours after CCl4
Description: In the present invention, male wild type C57BL/6(WT) at 12 weeks and SMP30 knock-out C57BL/6(KO) mice were used to induce liver injury by CCl4 and then the relation of SMP30 with arazyme was investigated. 10 male and 20 female SMP30 knock-out C57BL/6 mice were distributed from Tokyo Metropolitan Institute of Gerontology, which were then raised in the animal laboratory at Department of Pathology, College of Veterinary Medicine, Kyungpook National University, Korea. Among F1 mice generated by breeding, knock-out mice were selected by tail DNA genotyping by PCR.
Wild type mice were quarantined and adapted for 7 days in the animal laboratory. During the adaptation, every symptom was checked and only healthy animals were selected. Both wild type and SMP30 knock-out mice were 12 weeks old, excluding the difference in age.
Rats were adapted and raised in an animal facility where temperature was regulated to 22±3° C., humidity was adjusted to 55±10% and light was also regulated to 12L/12D (08:00 lights on, 20:00 lights out). The environmental conditions were checked regularly (every three months). After environmental evaluation, no changes in important conditions were recognized. During the whole experiment period, rats were raised in polycarbonate cages [240 W×390 L×175 H (mm)] by up to 5 per cage. Skin mark using an oil magic pen and individual identification card were used for distinguishment. Feed for laboratory animals (PMI Nutrition International, 505 North 4th Street Richmond, in 47374, USA) was provided at any time after being sterilized by irradiation (13.2 kGy). Tap water was provided using a water bottle at any time after being purified by a carbon filter. Carbon tetrachloride was diluted in olive oil at the concentration of 0.4 ml/kg and administered to […] once to induce liver injury. 24 hours after the administration, autopsy was performed.
Wild type mice and SMP30 knock-out mice were divided, by 5 of each, into negative control groups (G1, G5), positive control groups (G2, G6), two of experimental group 1 (G3, G7) and two of experimental group 2 (G4, G8) (Table 1). […]

P-smad3 [2] = assay: Immunohistochemical observation of P-smad3 expression in liver cells; type: in vivo, mice; conditions: 100 mg/kg oral before CCl4
SMP30 [3] = assay: Immunohistochemical observation of SMP30 in liver cells; type: in vivo; conditions: wild type mice, 100 mg/kg oral before CCl4, compared with CCl4 alone
Method: as §1
To observe SMP30 in liver cells immunohistochemically, paraffin embedded tissues fixed with formalin were cut into 4 μm thick sections, followed by deparaffinization. To inhibit the activity of endogenous peroxidase, the sections were treated in 3% H2O2 for 30 minutes and washed with 0.01 M PBS. To increase antigen expression of the tissues, the sections were treated with 0.01 M citrate buffer, followed by heat treatment using microwave. […]

P-smad3 [4] = assay: Expression of P-smad3 in liver cells by immunoblotting; type: in vivo; conditions: SMP30 knock-out mice; compared with CCl4 alone (G6)
Method: as §1, §2

Structure (SMILES): O=C1O[C@H]([C@@H](O)CO)C(O)=C1O [vitamin C, L-ascorbic acid, reference compound]
- SMP30 expression (immunoblotting) (SMP30 [1]): high
- necrosis in liver cells (liver cells; SMP30 knock-out C57BL/6 mice): significantly inhibited
- necrosis in liver cells (liver cells; wild type C57BL/6 mice): significantly inhibited
- apoptosis of liver cells, histological observation (liver cells; wild type and SMP30 knock-out mice with acute liver injury): inhibition of apoptosis of liver cells was observed
- P-smad3 immune response (immunohistochemistry) (P-smad3 [2]; SMP30 knock-out mice, G6, G7 compared with G8): strongly detected
- P-smad3 immune response (immunohistochemistry) (P-smad3 [2]; wild type mice, compared with CCl4 only (G2), 100 mg/kg): strong immune response against P-smad3 was detected in group 2 (G2) treated with CCl4 only, compared with the groups (G3, G4) treated with vitamin C and arazyme; also recorded: strongly observed in CCl4 treated group (G2), compared with the groups treated with vitamin C and arazyme (G3, G4)
- SMP30 expression (immunohistochemistry) (SMP30 [3]): higher; also recorded: more strongly expressed
- P-smad3 expression (immunoblotting) (P-smad3 [4]): inhibited
